How the values were obtained:
[1] = test system: Human Dermal Fibroblast (HDF) cells; assay: Bioactivity after 4-week storage at 4° C., HDF proliferation; assay type: cell-based; details: 4 weeks of storage at 4° C., then 1 ng/ml on HDF for 72 hours
Procedure: FIG. 4B depicts exemplary bioactivity study of bFGF-heparin mimicking (bFGF-pSS-co-PEGMA) conjugate in promoting HDF proliferation compared to other control groups before and after the treatments. Preparation of untreated and treated samples is detailed in the Methods section. The concentrations of bFGF and bFGF in the conjugates under treatment were 0.05 ng/μL. The concentration of heparin under treatment was 0.075 ng/μl or 0.05 μg/μl, while the concentrations of the unconjugated polymers were 0.075 ng/μl. The final concentrations of bFGF and bFGF conjugates in the medium were 1 ng/ml. Bioactivity study of bFGF-heparin mimicking polymer, bFGF-pSS-co-PEGMA conjugate, after 4-week storage at 4° C. Data was normalized to the blank sample (contained medium only). Each group was done with six replicates.
Bioactivity study of bFGF-pSS-co-PEGMA conjugate after long-time storage was also tested. After 4 weeks of storage 4° C.
In these experiments, an amount of 30 μl of each experimental group in D-PBS was made up to contain 0.05 ng/μ1 of bFGF or bFGF-pSS-co-PEGMA conjugate. The positive control group was prepared to contain 0.05 ng/μl of bFGF and 0.05 μg/μl of heparin. The samples were then stored at 4° C. for 4 weeks. […]

[2] = test system: Human Dermal Fibroblast (HDF) cells; assay: Stability study of bFGF and bFGF conjugates under treatments, read out as HDF proliferation; assay type: cell-based; details: for percent cell growth after trypsin treatment: 0.1% w/v trypsin for 16 hours at 4° C.; for bioactivity after mildly acidic conditions: pH 4.7 for 16 hours at 4° C.; for percent cell growth after storage: storage at 4° C. for 16 hours
Procedure: (§1) Preparation of untreated and treated samples is detailed in the Methods section. The concentrations of bFGF and bFGF in the conjugates under treatment were 0.05 ng/μL. The concentration of heparin under treatment was 0.075 ng/μl or 0.05 μg/μl, while the concentrations of the unconjugated polymers were 0.075 ng/μl. The final concentrations of bFGF and bFGF conjugates in the medium were 1 ng/ml. Incubation of HDF with each of the samples was carried out for 72 hours. CellTiter® blue assay was performed to quantify percent cell growth. Data was normalized to the blank sample (no bFGF added) in that same treatment group. Each sample was done with six repeats, and the whole experiment was repeated eight times including one blinded study, except (+)bFGF(+)1.5 ng/ml pPEGMA and (+)bFGF-pPEGMA were repeated four times. Error bars are SEM. Statistical analysis was done using two-way ANOVA and Student's T-test. * denotes p<0.05, ** denotes p<0.01 and *** denotes p<0.001 between the sample indicated and the (+) bFGF (−) heparin within that same stress set.
To study the stability of bFGF and bFGF conjugates under various treatments (storage, acidic conditions, protease degradation, and heat), the protein and the conjugates were diluted in medium after these treatments and tested for their bioactivity in promoting HDF proliferation.
The control blank group contained 15 μl of D-PBS. The 15 μl/experimental group was split into 4 vials of 3 μl/vial for four separate treatments. In one set of the 3 μl-vials, 27 μl of D-PBS was added to each vial and the samples were stored at 4° C. for 16 hours. In another set of 3 μl-vials, 27 μl of pH 4.7 PBS was added to each vial and the samples were stored at 4° C. for 16 hours. In the third set of 3 μl-vials, 27 μl of 0.1% Trypsin was added to each vial and the samples were stored at 4° C. for 16 hours. The fourth set of 3 μl-vials were stored at 4° C. for 16 hours before 27 μl of 1% TFA was added and treated for 2 hours at 4° C. The samples under no treatment and under heat treatment were prepared fresh in the same way towards the end of the 16 hour-treatment of other samples. The samples under heat treatment were placed in dry bath at 55° C. for 30 minutes. […] Then, the medium samples were used for cell proliferation assay as described above. After an incubation for 72 hours at 37° C., 5% CO2, CellTiter-Blue® assay was carried out to evaluate cell proliferation. […] Each group was done with six replicates, and the whole experiment was repeated four times, one of which was a blinded study. A two-way ANOVA and student's T-test were done for statistical analysis.
The chosen treatments represent environmental stresses that the growth factor (or any heparin-binding protein) could be exposed to. For example, storage in the unfrozen form and exposure to heat during delivery, transport, or use were represented by the “Storage at 4° C. for 16 hours” treatment and “Heat at 55° C. for 30 minutes” treatment, respectively. Incubation at “pH 4.7 for 16 hours” is relevant because mildly acidic conditions are necessary to inhibit bacterial growth during wound treatment.
Furthermore, the stability of the bFGF-heparin mimicking conjugate was challenged against proteolytic degradation and extreme acidic conditions by incubating with 0.1% w/v trypsin for 16 hours and 1% trifluoroacetic acid (TFA) for 2 hours, respectively. The starting concentrations of bFGF and bFGF in the conjugates were equivalent and the concentrations of the unconjugated polymers and heparin were the same at approximately stoichiometric ratios to bFGF. The positive control group contained a large excess (700 molar) of heparin to bFGF. The negative control was native bFGF alone.

[3] = test system: Human Dermal Fibroblast (HDF) cells; assay: Bioactivity study: HDF proliferation, CellTiter-Blue assay, untreated samples; assay type: cell-based; details: no stress, samples stored at −80° C. before use; 1 ng/ml bFGF or bFGF in conjugate; 72 hours; normalized to blank
Procedure: as §1
HDF cells were trypsinized and resuspended in UltraCULTURE™ serum-free medium supplemented with 2 mM L-Glutamine and 100 u/ml penicillin and 100 μg/ml streptomycin. The cells were plated at a concentration of 2000 cells/well in a 96-well plate and allowed to adhere over 16 hours at 37° C., 5% CO2. […] Then, the medium in the wells was replaced with 100 μl of each sample. After an incubation for 72 hours at 37° C., 5% CO2, CellTiter-Blue® assay was carried out to evaluate cell proliferation. […] Each group was done with six replicates, and the whole experiment was repeated four times, one of which was a blinded study.
HDFs were used as the in vitro model to evaluate the bioactivity of the bFGF-heparin mimicking polymer conjugate before and after exposure to various stresses.

[4] = test system: BaF3 cells (FR1C-11); assay: Proliferation study of BaF3 cells expressing FGFR1 and lacking heparan sulfate proteoglycans; assay type: cell-based; details: 42 hours, medium lacking IL-3, normalized to blank; for percent cell growth, bFGF or conjugate alone: 1 ng/ml, without heparin
Procedure: BaF3 cells (FR1C-11), which express FGFR1 but lack heparin sulfate proteoglycans, were seeded at a density of 20,000 cells/well in cultured medium lacking IL-3 in a 96-well-plate. […] The cells were incubated for 42 hours. CellTiter® blue assay was performed to quantify percent cell growth. Data was normalized to blank sample group. Each group was done with six replicates. Error bars are standard deviations.
Heparin (as cell surface receptors called heparan sulfate proteoglycans) is also known to increase the mitogenic activity of bFGF by increasing binding to the bFGF receptors (FGFRs). In addition, heparin promotes bFGFR dimerization by providing the “glue” between two bFGFs and two FGFRs (see crystal structure, FIGS. 12B and 12C). In fact, this heparin assisted, ligand-induced dimerization of bFGFRs is required for activity. […] In some embodiments, the new heparin mimicking polymer can induce the dimerization and uptake the FGFRs.
While bFGF interacts directly with cells by binding to FGFRs, signal transduction cannot occur without the simultaneous interaction with heparan sulfate proteoglycan (HS) cell surface receptors. […] BaF3 cells are engineered to express FGFR1 and lack cell-surface HS; addition of soluble heparin is required to activate the cells with bFGF.

[5] = test system: Human Dermal Fibroblast (HDF) cells; assay type: cell-based; details: 1 ng/ml bFGF or conjugate, 72 hours, with 125 nM PD173074
Procedure: FIG. 6 depicts the exemplary results of an inhibition assay. The medium samples were prepared with and without 125 nM of PD173074. 2,000HDF cells/well was incubated with each of the sample for 72 hours at 37° C., 5% CO2. Each sample group was done with six replicates, and the whole experiment was repeated three times.
To confirm that the bFGF-heparin mimicking conjugate promoted cell growth by the same transduction pathway as by native bFGF, a potent inhibitor for FGF receptor 1 (FGFR1) was included in the media. PD173074 (N-[2-[[4-(diethylamino)butyl]amino]-6-(3, 5-dimethoxyphenyl)pyrido[2, 3-d]pyrimidin-7-yl]-N′-(1, 1-dimethylethyl)-urea) competes with adenosine-5′-triphosphate (ATP) for binding to the receptors, a key step for FGFR phosphorylation, and shuts down the signal transduction pathways associated with cell proliferation.
HDF cells were trypsinized and resuspended in UltraCULTURE™ serum-free medium supplemented with 2 mM L-Glutamine and 100 u/ml penicillin and 100 μg/ml streptomycin. […] On the next day, the experimental groups were prepared to contain 1 ng/ml of bFGF, or 1 ng/ml of bFGF with 1 μg/ml of heparin, or 1 ng/ml of bFGF-pSS-co-PEGMA; all with an addition of 125 nM of the inhibitor PD173074. The control groups were the replicates but without the addition of the inhibitor. Then, the medium in the wells was replaced with 100 μl of each sample. […]

[6] = test system: Human Dermal Fibroblast (HDF) cells; details: 1 ng/ml to 1 mg/ml for 24 hours in the absence of bFGF
Procedure: 5,000 HDF cells/well was incubated with various concentrations of each polymer for 24 hours at 37° C., 5% CO2. Then, each well was washed twice with D-PBS and subsequently incubated with 1 μM Calcein AM 4 μM Ethidium homodimer-1 in D-PBS for 20 minutes at 37° C., 5% CO2. Percentage of live cells was calculated by dividing the number of live cells by the total number of live and dead cells. Each experimental group was done with four replicates, and the whole experiment was repeated four times, one of which was a blinded study. Error bars are SEMs.
HDF cells were trypsinized and resuspended in fibroblast growth medium lacking bFGF. The cells were plated at a concentration of 5000 cells/well in a 48-well plate and allowed to adhere over 16 hours at 37° C., 5% CO2. Then, the medium in the wells was replaced with 200 μl of the working medium containing various amount of polymer/heparin. After an incubation of 24 hours at 37° C., 5% CO2, cell viability was assessed using LIVE/DEAD® viability/cytotoxicity assay. Briefly, the cells were washed twice with pre-warmed D-PBS, then incubated with 200 μl of 1 μM Calcein AM and 4 μM Ethidium homodimer-1 in D-PBS for 20 minutes at 37° C., 5% CO2. […] The numbers of live and dead cells were counted manually using NIH Image J software, and percent live cells was calculated by dividing the number of live cells by the total number of live and dead cells. […]

[7] = then 1 ng/ml on HDF for 72 hours

Row | Substance | activity after long-time storage [1] | percent cell growth after trypsin treatment [2, 7] | percent cell growth after TFA treatment ([2]; 1% trifluoroacetic acid (TFA) for 2 hours, then 1 ng/ml on HDF for 72 hours) [%] | percent cell growth after heat treatment ([2]; heat at 55° C. for 30 minutes, then 1 ng/ml on HDF for 72 hours) [%] | bioactivity after mildly acidic conditions [2, 7] | percent cell growth after storage [2, 7] | stability to the treatments (overall) ([2]; storage, pH 4.7, trypsin, 1% TFA, heat, read out as HDF proliferation) | percent cell growth [3] [%] | percent cell growth, bFGF or conjugate alone [4] | percent cell growth, bFGF or conjugate alone ([4]; listed as bFGF-pSS-co-pPEGMA) [%] | percent cell growth in the presence of PD173074 [5] [%] | percent cell growth, additive given with bFGF ([4]; 1 μg/ml of additive with 1 ng/ml of bFGF) [%] | percent cell viability [6]
1 | bFGF-pSS-co-PEGMA: bFGF covalently conjugated via a reversible disulfide bond to one heparin mimicking polymer pSS-co-PEGMA (mono-conjugate) | completely retained | 176±11% | 162±17 | 167±12 | statistically the same as before treatment | 210±10% | stable | 213±13 | did not induce cell growth | 147±14 | 85±11 |  | 
2 | bFGF-poly(ethylene glycol) methyl ether methacrylate) [bFGF-pPEGMA, reference compound] |  | some stability |  |  | some stability | some stability |  | 190±6 |  |  |  |  | 
3 | bFGF: Basic fibroblast growth factor, a 16-kDa polypeptide, also called fibroblast growth factor 2 |  |  |  |  |  |  |  | 192±9 | 127±12% |  | 88±5 |  | 
4 | heparin [reference compound] |  |  |  |  |  |  |  |  |  |  |  | 384±35 | the same as no polymer added
